# Test results reported in ChEMBL document CHEMBL1131963, “Novel benzo-fused lactam scaffolds as factor Xa inhibitors” (Bioorg Med Chem Lett, 1999).
# How the values were obtained:
# Plasminogen = Plasminogen (Homo sapiens, UniProt P00747); experiment: In vitro inhibitory activity against human enzyme plasmin
# Coagulation factor X [1] = biological target: T1, Coagulation factor X (Homo sapiens, UniProt P00742); experiment: In vitro inhibitory activity against human prothrombinase
# Coagulation factor X [2] = biological target: T1, Coagulation factor X; experiment: In vitro inhibitory activity against human enzyme Coagulation factor X
# [3] = Ratio against factor Xa to prothrombinase
# Serine protease 1 [4] = biological target: T2, Serine protease 1 (Homo sapiens, UniProt P07477); experiment: In vitro evaluation of inhibition of cleavage of the chromogenic substrate by human enzyme trypsin
# T2 sequence (P07477 whole entry): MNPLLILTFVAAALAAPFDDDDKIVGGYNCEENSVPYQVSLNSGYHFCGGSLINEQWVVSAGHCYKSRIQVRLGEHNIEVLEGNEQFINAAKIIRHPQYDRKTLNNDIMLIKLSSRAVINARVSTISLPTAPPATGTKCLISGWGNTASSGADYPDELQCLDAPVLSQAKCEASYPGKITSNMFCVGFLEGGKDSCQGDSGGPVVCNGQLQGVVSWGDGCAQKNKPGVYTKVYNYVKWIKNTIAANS
# Prothrombin [5] = biological target: T3, Prothrombin (Homo sapiens, UniProt P00734); experiment: In vitro inhibitory activity against human enzyme thrombin
# Prothrombin [6] = biological target: T3, Prothrombin; experiment: In vitro inhibitory activity against by human enzyme thrombin
# Serine protease 1 [7] = biological target: T2, Serine protease 1; experiment: In vitro inhibitory activity against human enzyme trypsin
# Coagulation factor X [8] = biological target: T1, Coagulation factor X; experiment: In vitro inhibitory activity against prothrombinase
# T1 sequence (P00742 41-179 limits assumed): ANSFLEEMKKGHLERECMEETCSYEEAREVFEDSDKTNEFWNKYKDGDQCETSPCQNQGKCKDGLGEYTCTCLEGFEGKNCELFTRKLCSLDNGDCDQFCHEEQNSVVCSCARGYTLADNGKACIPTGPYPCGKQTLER
# T1 sequence (P00742 235-488 limits assumed): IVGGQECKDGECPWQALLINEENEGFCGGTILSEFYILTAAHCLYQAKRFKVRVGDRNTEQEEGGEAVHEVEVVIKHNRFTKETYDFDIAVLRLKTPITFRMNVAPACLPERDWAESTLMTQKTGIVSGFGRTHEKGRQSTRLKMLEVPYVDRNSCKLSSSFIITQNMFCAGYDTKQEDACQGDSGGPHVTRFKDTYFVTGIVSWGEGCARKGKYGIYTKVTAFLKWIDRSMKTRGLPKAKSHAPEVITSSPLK
# Plasminogen, sequence (P00747 97-580 limits assumed): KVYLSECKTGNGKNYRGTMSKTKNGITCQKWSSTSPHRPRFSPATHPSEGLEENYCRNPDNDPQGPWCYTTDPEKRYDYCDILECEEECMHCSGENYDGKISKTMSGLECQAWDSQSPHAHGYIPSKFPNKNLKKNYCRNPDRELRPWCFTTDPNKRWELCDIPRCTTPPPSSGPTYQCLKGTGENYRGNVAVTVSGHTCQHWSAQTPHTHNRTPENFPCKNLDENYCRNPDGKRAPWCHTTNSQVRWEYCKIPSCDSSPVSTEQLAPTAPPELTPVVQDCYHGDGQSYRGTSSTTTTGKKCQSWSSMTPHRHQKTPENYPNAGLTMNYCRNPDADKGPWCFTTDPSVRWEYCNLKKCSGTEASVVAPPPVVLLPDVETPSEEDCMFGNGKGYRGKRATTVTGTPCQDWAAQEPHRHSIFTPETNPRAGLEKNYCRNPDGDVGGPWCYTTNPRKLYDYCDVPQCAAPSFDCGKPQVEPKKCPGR
# Plasminogen, sequence (P00747 581-810 limits assumed): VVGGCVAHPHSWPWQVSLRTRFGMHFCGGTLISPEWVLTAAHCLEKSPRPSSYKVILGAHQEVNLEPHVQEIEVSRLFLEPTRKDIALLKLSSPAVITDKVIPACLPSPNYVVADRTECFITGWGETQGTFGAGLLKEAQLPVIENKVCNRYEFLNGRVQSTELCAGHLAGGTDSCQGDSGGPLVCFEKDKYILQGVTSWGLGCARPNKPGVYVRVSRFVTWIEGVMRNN
IC50 (Plasminogen) [nM],IC50 (Coagulation factor X [1]) [nM],IC50 (Coagulation factor X [2]) [nM],Ratio [3],IC50 (Serine protease 1 [4]) [nM],IC50 (Prothrombin [5]) [nM],IC50 (Prothrombin [6]) [nM],IC50 (Serine protease 1 [7]) [nM],IC50 (Coagulation factor X [8]) [nM],SMILES
> 2500,26.7,8.6,3.1,77,235,–,–,–,COc1cccc2c1CC[C@H](NS(=O)(=O)Cc1ccccc1)C(=O)N2CC(=O)N[C@H]1CCCN(C(=N)N)C1O (some centres not stated)
> 2500,19.1,3.6,5.3,27,–,285,–,–,COc1ccc2c(c1)CC[C@H](NS(=O)(=O)c1ccc3ccccc3c1)C(=O)N2CC(=O)N[C@H]1CCCN(C(=N)N)C1O (some centres not stated)
> 2500,17.1,7.3,2.3,–,178,–,26,–,N=C(N)N1CCC[C@H](NC(=O)CN2C(=O)[C@@H](NS(=O)(=O)Cc3ccccc3)CCc3ccccc32)C1O (some centres not stated)
> 2500,–,20.6,–,–,–,–,75,–,N=C(N)N1CCC[C@H](NC(=O)CN2CCCC[C@H](NS(=O)(=O)Cc3ccccc3)C2=O)C1O (some centres not stated)
> 2500,64.3,28.9,2.2,40,> 2500,–,–,–,COc1ccc2c(c1)N(CC(=O)N[C@H]1CCCN(C(=N)N)C1O)C(=O)[C@@H](NS(=O)(=O)Cc1ccccc1)CC2 (some centres not stated)
> 2500,–,1.9,5.2,–,829,–,1.5,9.9,COc1ccc2c(c1)CC[C@H](NS(=O)(=O)CC1CCCCC1)C(=O)N2CC(=O)N[C@H]1CCCN(C(=N)N)C1O (some centres not stated)
> 2500,34.9,7.2,4.8,110,> 2500,–,–,–,COc1ccc2c(c1)CC[C@H](NS(=O)(=O)Cc1ccccc1)C(=O)N2CC(=O)N[C@H]1CCCN(C(=N)N)C1O (some centres not stated)
> 2500,–,49,–,–,192,–,135,–,N=C(N)N1CCC[C@H](NC(=O)CN2C(=O)[C@H](NS(=O)(=O)Cc3ccccc3)CCc3ccccc32)C1O (some centres not stated)

SMILES,IC50 (Plasminogen) [nM],IC50 (Coagulation factor X [1]) [nM],IC50 (Coagulation factor X [2]) [nM],Ratio [3],IC50 (Serine protease 1 [4]) [nM],IC50 (Prothrombin [5]) [nM],IC50 (Prothrombin [6]) [nM],IC50 (Serine protease 1 [7]) [nM],IC50 (Coagulation factor X [8]) [nM]
N=C(N)N1CCC[C@H](NC(=O)CN2C(=O)C(NS(=O)(=O)Cc3ccccc3)Cc3ccccc32)C1O (some centres not stated),> 2500,–,> 2500,–,–,17.9,–,289,–
